PMC9576799, “Discovery of small molecule inhibitors that effectively disrupt IQGAP1-Cdc42 interaction in breast cancer cells” (Scientific Reports, 2022)
Read-outs that look alike come from different tables or passages of the source.

What was measured:
[1] = biological target: T1, endogenous IQGAP1/Cdc42 interaction (Homo sapiens, UniProt P46940+P60953); test: Immunoprecipitation of endogenous IQGAP1 and co-precipitated Cdc42 in HEK293 cell lysates; assay type: binding; settings: DMSO = 100% binding
T1 construct: endogenous in cells; host or cells: HEK293 cell lysate
T1 sequence (P46940 2-1657 limits assumed): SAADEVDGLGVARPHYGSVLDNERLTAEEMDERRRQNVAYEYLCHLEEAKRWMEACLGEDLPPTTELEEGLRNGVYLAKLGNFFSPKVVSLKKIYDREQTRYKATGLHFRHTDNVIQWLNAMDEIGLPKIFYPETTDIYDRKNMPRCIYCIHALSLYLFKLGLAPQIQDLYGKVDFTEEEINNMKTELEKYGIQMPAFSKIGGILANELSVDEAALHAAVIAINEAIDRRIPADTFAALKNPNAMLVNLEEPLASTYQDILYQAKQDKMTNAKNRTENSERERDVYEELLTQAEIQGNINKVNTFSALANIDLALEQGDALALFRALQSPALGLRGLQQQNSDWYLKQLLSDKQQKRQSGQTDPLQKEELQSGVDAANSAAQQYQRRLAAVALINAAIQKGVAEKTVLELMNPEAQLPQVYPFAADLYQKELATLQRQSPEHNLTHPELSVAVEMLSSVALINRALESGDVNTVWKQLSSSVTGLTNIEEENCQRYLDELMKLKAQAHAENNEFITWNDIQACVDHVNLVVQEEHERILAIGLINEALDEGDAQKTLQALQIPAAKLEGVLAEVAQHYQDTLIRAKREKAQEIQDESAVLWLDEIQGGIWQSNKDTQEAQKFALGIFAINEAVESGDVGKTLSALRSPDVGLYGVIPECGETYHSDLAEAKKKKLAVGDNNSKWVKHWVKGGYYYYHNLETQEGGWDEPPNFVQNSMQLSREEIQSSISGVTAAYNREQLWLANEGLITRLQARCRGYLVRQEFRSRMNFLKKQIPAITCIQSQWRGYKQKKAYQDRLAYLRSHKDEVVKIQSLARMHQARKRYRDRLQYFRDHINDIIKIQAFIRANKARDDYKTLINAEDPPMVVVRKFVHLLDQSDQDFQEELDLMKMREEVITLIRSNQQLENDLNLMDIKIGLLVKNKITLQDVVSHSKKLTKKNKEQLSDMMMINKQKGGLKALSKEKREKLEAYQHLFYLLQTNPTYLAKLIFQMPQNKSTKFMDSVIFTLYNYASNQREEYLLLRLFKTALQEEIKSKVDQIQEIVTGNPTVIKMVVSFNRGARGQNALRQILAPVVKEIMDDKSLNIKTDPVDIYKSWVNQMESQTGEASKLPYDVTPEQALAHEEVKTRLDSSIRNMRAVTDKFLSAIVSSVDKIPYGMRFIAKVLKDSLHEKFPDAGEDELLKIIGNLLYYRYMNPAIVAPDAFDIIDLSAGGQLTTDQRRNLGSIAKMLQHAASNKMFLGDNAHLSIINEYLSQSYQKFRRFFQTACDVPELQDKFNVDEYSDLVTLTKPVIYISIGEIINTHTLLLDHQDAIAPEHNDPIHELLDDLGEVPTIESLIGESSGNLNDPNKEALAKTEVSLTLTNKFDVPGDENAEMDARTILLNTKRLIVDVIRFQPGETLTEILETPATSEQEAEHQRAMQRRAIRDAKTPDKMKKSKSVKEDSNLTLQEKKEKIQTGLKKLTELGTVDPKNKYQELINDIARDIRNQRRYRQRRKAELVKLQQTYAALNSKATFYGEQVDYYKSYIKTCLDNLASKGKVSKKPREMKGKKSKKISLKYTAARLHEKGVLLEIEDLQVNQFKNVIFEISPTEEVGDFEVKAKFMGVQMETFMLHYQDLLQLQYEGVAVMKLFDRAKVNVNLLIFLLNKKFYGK
T1 sequence (P60953 1-188 limits assumed): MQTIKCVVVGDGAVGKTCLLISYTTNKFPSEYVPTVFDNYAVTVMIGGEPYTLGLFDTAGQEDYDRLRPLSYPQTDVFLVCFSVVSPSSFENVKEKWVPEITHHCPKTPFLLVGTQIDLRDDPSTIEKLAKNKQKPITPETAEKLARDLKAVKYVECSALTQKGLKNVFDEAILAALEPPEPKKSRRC
Description: Each compound was added to lysates from HEK293 cells at a final concentration of 50 µM and endogenous IQGAP1 was immunoprecipitated. DMSO alone was used as the negative control (100% binding).
HEK293 cells were plated in 10-cm dishes to reach 80% confluence. The following day, the cells were washed with ice-cold phosphate-buffered saline (PBS) and lysed with 500 µl of Buffer A (50 mM Tris–HCl, pH 7.4, 150 mM NaCl, and 1% Triton X-100) supplemented with complete protease and phosphatase inhibitors (Roche, Mannheim, Germany). Lysates were subjected to two rounds of sonication for 10 s each, and insoluble material was precipitated by centrifugation at 13,000 xg for 10 min at 4 °C. Supernatants were precleared with protein A-Sepharose beads for 1 h. DMSO (vehicle) or different concentrations of the compounds (0.2, 0.6, 1, 5, 16 or 50 µM) were added to equal amounts of protein lysates for 30 min. Protein A-Sepharose beads and anti-IQGAP1 polyclonal antibodies were then added for 2 h at 4 °C. Anti-rabbit IgG antibodies were used as the immunoprecipitation control. Samples were washed five times with Buffer A, resolved by SDS-PAGE and transferred to polyvinylidene fluoride (PVDF) membranes (Millipore Corp). Membranes were probed with anti-IQGAP1 and anti-Cdc42 antibodies. After secondary antibody detection, Western blots were imaged using a LI-COR Odyssey infrared imaging system (LI-COR, USA). Western blot quantification and analysis was conducted using Image Studio™ Lite (LI-COR Biosciences).

His-Cdc42 = biological target: T2, His-Cdc42 (Homo sapiens, UniProt P60953, Q61L); test: Microscale thermophoresis (MST); assay type: binding; settings: for Kd / effect on thermophoretic motion of Cdc42: MST; for Kd: 100 nM labeled His-Cdc42, n = 3; for effect on thermophoretic motion of Cdc42: 500 µM to 244 nM
T2 construct: made in house; host or cells: E. coli
T2 sequence (P60953 1-184 isoform P60953-1 Q61L): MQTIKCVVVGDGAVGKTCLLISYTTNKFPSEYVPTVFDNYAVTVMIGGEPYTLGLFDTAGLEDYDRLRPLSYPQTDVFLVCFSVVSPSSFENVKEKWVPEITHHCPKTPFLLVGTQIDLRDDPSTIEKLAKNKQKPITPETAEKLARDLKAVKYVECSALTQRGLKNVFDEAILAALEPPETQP
Description: Two-fold serial dilutions of compounds were first prepared in DMSO, then further diluted in PBS containing 0.05% Tween-20. […] Samples were loaded into Monolith™ standard capillaries and measured using Monolith NT.115 (Nanotemper Technologies) with 50% excitation power and 50% MST power, with laser on and off times of 30 s and 5 s, respectively. The Kd values were calculated by evaluating the thermophoresis and T-Jump signals using MO.Affinity Analysis software (Nanotemper Technologies). All experiments were conducted in three biological replicates.

[2] = test system: active (GTP-bound) Cdc42 in MDA-MB-231 cells; test: Assay of active Cdc42 (GST-WASP-GBD pulldown); assay type: cell-based, human; settings: 50 µM for 2 h, 100 ng/mL EGF 10 min
Description: The GST-WASP-GBD (GTPase-binding-domain) has been described previously. Briefly, GST-WASP-GBD was generated by polymerase chain reaction, digested, and ligated into a pGEX-KG vector[52]. Following expression of the GST fusion protein in E. coli, purification was performed by glutathione-Sepharose affinity chromatography. MDA-MB-231 cells were grown in DMEM with 10% FBS to 60% confluence. After 2 h, 100 ng/mL EGF or vehicle was added for 10 min. After washing with 1xPBS, cells were lysed in lysis buffer (20 mM Hepes, pH 7.4, 150 mM NaCl, 1% NP-40, 20 mM NaF, and 20uM GTP, containing halt protease & phosphatase inhibitor cocktail (Thermo Scientific #1,861,281). Lysates were precleared with glutathione-Sepharose for 1 h at 4 °C and equal amounts of protein was incubated with either GST (control) or GST-WASP-GBD for 2 h at 4 °C. Complexes were collected with glutathione-Sepharose and washed 5× with lysis buffer. Bound proteins were resolved by SDS-PAGE and transferred to a polyvinylidene difluoride membrane. The membrane was cut immediately below the 37 kDa molecular weight marker. The top portion of the membrane was discarded and the bottom portion was probed with anti-Cdc42 antibody (BD Transduction Laboratories #610929). Aliquots of whole cell lysate were processed in parallel. […] The intensities of the Cdc42 and tubulin bands were quantified using Image Studio (LI-COR Biosciences).

control MCF7 cells = test: CellTiter-Glo cell viability assay, control MCF7; assay type: cell-based, human; settings: 72 h
Description: Selected hit compounds were tested in CellTiterGlo cell viability assays to determine their cytotoxic effect on IQGAP1 knockout and control MCF7 cells. Prior to the assay, we assessed cell proliferation to keep both cell lines at similar exponential growth rates within 80 h after plating. For this purpose, the cells were plated onto 384-well clear bottom black plates (Perkin Elmer, Ultra) at various cell densities (between 625 and 10,000 cells/50µL/well), spun down for 15 s, and placed into Incucyte SX5 (Essen BioScience) for automated bright-field channel reading every 4 h. […] For the cytotoxicity assays, cells were harvested with 0.05% trypsin, spun down at 125xg for 5 min, re-suspended in fresh DMEM supplemented with 5% (v/v) FBS, and seeded into 1536-well white solid bottom tissue culture-treated plates (Greiner One, #789173-F) at 600 cells/5µL/well for knockout cells and 300 cells/5µL/well for control cells using a Multidrop Combi dispenser (Thermo Fisher Scientific Inc.). One column on each plate was dispensed with growth medium only (no cells) to gauge the maximal potential cytotoxic effect (IC100 control). The plates were kept in a tissue culture incubator at 37 °C with 5% CO2 for ~ 20 h for attachment and recovery of the cells. The next day, selected compounds were pin-transferred into the wells in columns 5–48, 23nL/well at 7-point 1:3 serial dilution, in the range of 46 µM to 78 nM final assay concentration. DMSO was used as the vehicle control (IC0). The plates were covered with stainless steel cell culture Kalypsys lids and incubated at 37 °C with 5% CO2 under 95% humidity for 72 h.
Plates and reagents were equilibrated to room temperature and then 5 µL/well of CellTiter Glo (Promega, #G7570) reagent was dispensed with a Multidrop Combi dispenser to the assay plates. After incubation for 10 min at ambient temperature, the luminescence signal was read with a ViewLux instrument (Perkin Elmer) with one second exposure. Relative luminescent units (RLU) for each well were normalized to the median RLUs from DMSO control wells as […] and “no cells” control wells as 100% viability.

CCN1CCN(c2ncc3c(n2)CCN(Cc2cc(Br)cs2)C3)CC1 [NCGC00131308]
reduction of interaction between endogenous IQGAP1 and Cdc42 (mean) ([1]; 16 µM (Fig. 3b)): 60% | Kd (His-Cdc42; read-out: dissociation constant (Kd) for Cdc42): 28.1 µM | effect on EGF-induced active (GTP-) Cdc42 [2]: abrogated the increase in GTP-Cdc42 induced by EGF

CCN(CC)CCn1c2ccccc2c2nc3ccc([N+](=O)[O-])cc3cc21 [MLS000332963]
concentration above which precipitates formed (His-Cdc42; MST samples, PBS containing 0.05% Tween-20): above 62.5 µM | effect on thermophoretic motion of Cdc42 (His-Cdc42): did not affect the thermophoretic motion of Cdc42 | cytotoxicity efficacy (control MCF7 cells): 47% | EC50 (control MCF7 cells; read-out: cytotoxicity EC50): 19.9 µM

Cc1cccc(NC(=O)c2c(NC(=O)C(F)(F)F)sc3c2CCCCC3)c1 [NCGC00098561]
effect on thermophoretic motion of Cdc42 (His-Cdc42): did not affect the thermophoretic motion of Cdc42 | IC50 (control MCF7 cells; Homo sapiens, read-out: cytotoxicity EC50): 2.24 µM | Emax (control MCF7 cells; Homo sapiens, read-out: cytotoxicity efficacy): ~100%

CCc1ccccc1Nc1ncnc2c1cnn2-c1ccc(Cl)cc1 [NCGC00138812]
reduction of interaction between endogenous IQGAP1 and Cdc42 (mean) ([1]; 0.2 µM (Fig. 3b)): 47% | Kd (His-Cdc42): 96.2 µM | effect on EGF-induced active (GTP-) Cdc42 [2]: did not appreciably reduce activation of Cdc42 by EGF
